We go through 9 molecules from article PMC7354613 (Viruses, 2020).

Read-outs that look alike come from different tables or passages of the source.

Data set [1] has as its system J-Lat 10.6 cells. The data set is described as follows: HIV reactivation, GFP expression by flow cytometry, J-Lat 10.6 cells. It is filed as cell-based, HIV-1. The conditions noted are these: for EC50: Human immunodeficiency virus 1, J-Lat 10.6, 48 h, read-out: EC50 HIV activation J-Lat 10.6; for GFP expression with respect to the PMA control set to 100: J-Lat 10.6, 48 h, 0.5 µM PKCa, 0.3 µM HDACi. In general terms: A flow cytometer gives signals particle by particle.

Data set [2] relates to OM-10.1 cells latently infected with HIV-1. Briefly: HIV activation dose response, Gag p24 ELISA of supernatant, OM-10.1 cells. It is filed as cell-based. As to conditions: Human immunodeficiency virus 1, 48 h, read-out: EC50 HIV activation OM-10.1.
Data set [3] concerns ACH-2 cells latently infected with HIV-1. Briefly: HIV reactivation, Gag p24 ELISA of supernatant, ACH-2 cells. It is filed as cell-based. As to conditions: Human immunodeficiency virus 1, ACH-2, 48 h, read-out: EC50 HIV activation ACH-2.
Data set [4] relates to J-Lat A2 cells. Briefly: HIV reactivation, GFP expression by flow cytometry, J-Lat A2 cells. It is filed as cell-based, HIV-1. The conditions noted are these: Human immunodeficiency virus 1, J-Lat A2, 48 h, read-out: EC50 HIV activation J-Lat A2.
A short description of data set [5]: Cytotoxicity, CellTiter-Blue, J-Lat 10.6 cells. The format is cell-based. As to conditions: human, 48 h treatment, mean ± SD, n = 3. Background: The colour change of resazurin is a common sign of viable cells or microbes.
The nature of data set [6]: Cytotoxicity, CellTiter-Blue, J-Lat A2 cells. The conditions noted are these: human, 48 h treatment, mean ± SD, n = 3. The format is cell-based.
A short description of data set [7]: Cytotoxicity, CellTiter-Blue, U1 cells. It is filed as cell-based. The conditions noted are these: human, 48 h treatment, mean ± SD, n = 3.
Data set [8] can be described thus: Cytotoxicity, CellTiter-Blue, ACH-2 cells. As to conditions: human; 48 h treatment; mean ± SD, n = 3. The format is cell-based.
Data set [9] relates to U1 cells latently infected with HIV-1. The data set is described as follows: HIV reactivation, Gag p24 ELISA of supernatant, U1 cells. It is filed as cell-based. The conditions noted are these: Human immunodeficiency virus 1, 48 h, read-out: EC50 HIV activation U1. On the technique in general: ELISA stands for enzyme-linked immunosorbent assay.
A short description of data set [10]: Cytotoxicity, CellTiter-Blue, OM-10.1 cells. It is filed as cell-based. The conditions noted are these: human, 48 h treatment, mean ± SD, n = 3.
Data set [11] deals with OM-10.1 cells latently infected with HIV-1. The data set is described as follows: HIV RNA by real-time qRT-PCR, OM-10.1 cells. It is filed as cell-based. As to conditions: 48 h.
Data set [12] relates to ACH-2 cells latently infected with HIV-1. The data set is described as follows: Envelope gp120 expression by flow cytometry, ACH-2 cells. The format is cell-based. The conditions noted are these: live cells.
For data set [13], the system named is OM-10.1 cells latently infected with HIV-1. The data set is described as follows: Envelope gp120 expression by flow cytometry, OM-10.1 cells. It is filed as cell-based. The conditions noted are these: live cells.
Data set [14] relates to OM-10.1, U1, ACH-2, J-Lat 10.6 and J-Lat A2 cells. It is filed as cell-based, HIV-1. The conditions noted are these: read-out: EC50 HIV activation.
Data set [15] has as its system total CD4+ T-cells. The data set is described as follows: CD4 and CD3 surface expression by flow cytometry. The format is cell-based, human. The conditions noted are these: 24 h, 0.5 µM PKCa, 0.3 µM HDACi, untreated about 97%.
The test system of data set [16] is OM-10.1 cells latently infected with HIV-1. Briefly: Gag p24 immunoblot with densitometry, OM-10.1 cells. The format is cell-based. The conditions noted are these: 48 h.
Where [17] appears, read: Human immunodeficiency virus 1, range over all the cell lines tested, 48 h.

`CCN(CC)Cc1ccc2cc(COC(=O)Nc3ccc(C(=O)NO)cc3)ccc2c1` [Givinostat]: the EC50 in data set [1] is 880 ± 40 nM; in data set [2], 450 ± 130 nM; in data set [3], 320 ± 40 nM; in data set [4] it was 700 ± 50 nM; in data set [9], 630 ± 20 nM. Also, in data set [1], the “GFP expression with respect to the PMA control set to 100” value (shortened to “GFP expression”) is 2.9%. The half-maximal cytotoxic concentration (CC50) at 48 h in data set [5] is 930 ± 40 nM; in data set [6] it was 1200 ± 20 nM; in data set [7], about 4000 nM. Moreover, the values for the CC50 in [8] and in data set [10] were 630 ± 30 nM and 420 ± 10 nM, respectively.
`CCCCCCCCCCCCCC(=O)O[C@@H]1[C@@H](C)[C@@]2(O)[C@@H](C=C(CO)C[C@]3(O)C(=O)C(C)=C[C@@H]23)[C@@H]2C(C)(C)[C@]12OC(C)=O` [PMA, phorbol 12-myristate 13-acetate]: in data set [11] (cell-associated RNA), the “HIV-1 RNA expression, fold with respect to the untreated control” value is “about 10 fold”. Also, the “cells expressing gp120” value is 46% in data set [12] (24 h), 43% in data set [12] (48 h), 50% in data set [13] (24 h) and 24% in [13] (48 h).
In the case of `CC(=O)O[C@@]12C[C@@H](C)[C@@]3(O)[C@@H](C=C(CO)C[C@]4(O)C(=O)C(C)=C[C@@H]34)[C@@H]1C2(C)C` [Prostratin], the EC50 in data set [14] (setting [17]) is 300 to 870 nM; in data set [1], 680 ± 10 nM; in data set [2], 410 ± 30 nM; in data set [3] it was 310 ± 70 nM; in [4] it was 870 ± 30 nM; in [9], 300 ± 30 nM. Also, the “GFP expression” value in [1] is reported as 37%. In addition, the “cells expressing CD4 (CD4 expression, R1)” value (from here on “cells expressing CD4”) in data set [15] is recorded as “about 53%”. The CC50 at 48 h in data set [5], in data set [6] and in data set [7] was over 8000 nM throughout. Further, the CC50 in data set [8] and in [10] was over 8000 nM throughout.
In the case of `CC(C)C1C(=O)NC(CO)Cc2c[nH]c3cccc(c23)N1C` (single isomer, unassigned; (-)) [(-)-Indolactam V], the EC50 in [14] (Human immunodeficiency virus 1, 48 h) was 90 to 320 nM; in data set [1], 200 ± 40 nM; in data set [2], 90 ± 20 nM; in data set [3], 180 ± 30 nM; in data set [4] it was 320 ± 50 nM; in [9] it was 120 ± 20 nM. Further, the “cells expressing CD4” value in data set [15] stood at 5.5%. Besides, the CC50 at 48 h in [5], in data set [6], in data set [7], in [8] and in data set [10] was over 8000 nM each time.
As to `CC(C)[C@H]1C(=O)N[C@H](CO)Cc2cc(NC(=O)/C=C/C=C/c3ccc(C(F)(F)F)cc3)ccc2N1C` [TPPB], the EC50 amounted to 510 ± 80 nM in [1]; 130 ± 10 nM in [2]; 70 ± 10 nM in [3]; 490 ± 30 nM in [4]; 210 ± 10 nM in data set [9]. The “cells expressing CD4” value in data set [15] is on record as 18%. For the same molecule, the CC50 at 48 h in data set [5], in data set [6] and in data set [7] was over 8000 nM throughout. Also, the CC50 in data set [8] and in data set [10] was over 8000 nM in each case.
Regarding `CC(C)[C@H](C(=O)Nc1ccc(C(=O)NO)cc1)c1ccccc1` [AR-42], the EC50 in data set [14] (setting [17]) is 240 to 550 nM; in data set [1], 550 ± 20 nM; in data set [2] it was 530 ± 80 nM; in [3] it was 240 ± 40 nM; in data set [4] it was 440 ± 50 nM; in data set [9], 260 ± 100 nM. Also, the “GFP expression” value in data set [1] was found to be 10.2%. Besides, the CC50 at 48 h in data set [5] is 450 ± 20 nM; in [6], 530 ± 50 nM; in [7], about 8000 nM; in [10] (OM-10.1 cells), 400 ± 10 nM. The molecule further came in with a CC50 in [8] of 410 ± 10 nM.
For the molecule TNFα, the “cell-associated Gag p24, fold compared to treatment with PMA” value in data set [16] (immunoblot densitometry) is reported as 12–30 fold. The “extracellular p24, fold with respect to PMA-treated control” value in data set [16] (viral lysate immunoblot) is recorded as 1.5 fold. The “HIV-1 RNA expression, fold with respect to the untreated control” value in data set [11] (cell-associated RNA) was determined as 300 fold. Also, in [11] (cell-associated RNA, 0.5 µM PKCa, 0.3 µM HDACi), the “HIV-1 RNA expression, fold with respect to the PMA-treated control” value was “about 30 fold”. Besides, the “extracellular viral RNA, fold with respect to PMA-treated control” value in [11] (culture supernatant) was found to be 1.5 fold. Further, the “cells expressing gp120” value is given as 70% in data set [13] (24 h) and 42% in data set [13] (48 h).
With `CN(C)Cc1c(C(=O)NCCOc2ccc(C(=O)NO)cc2)oc2ccccc12` [PCI-24781], the EC50 worked out at 450 ± 20 nM in data set [1]; 350 ± 40 nM in [2]; 370 ± 40 nM in data set [3]; 380 ± 50 nM in [4]; 460 ± 30 nM in [9]. Moreover, the “GFP expression” value in [1] is reported as 6.5%. In addition, the CC50 at 48 h in data set [5] was 400 ± 20 nM; in data set [6], 540 ± 30 nM; in data set [7], about 8000 nM. The CC50 in data set [8] is 310 ± 20 nM; in data set [10], 400 ± 20 nM.
Turning to `O=C(/C=C/c1cccc(S(=O)(=O)Nc2ccccc2)c1)NO` [Belinostat], the EC50 was 440 to 940 nM in data set [14] (setting [17]); 940 ± 30 nM in [1]; 880 ± 400 nM in [2]; 440 ± 30 nM in data set [3]; 940 ± 50 nM in data set [4]; 770 ± 10 nM in [9]. The CC50 at 48 h in data set [5] was 1400 ± 60 nM; in data set [6], 1400 ± 20 nM; in [7], over 8000 nM; in [10] (OM-10.1 cells), 2700 ± 200 nM. This molecule also displayed a CC50 in data set [8] of 1100 ± 200 nM.

For orientation: EC50 means the midpoint of the concentration-response curve. One may read the CC50 as the concentration at which the toxic effect on the cells reaches its halfway point.
